Where two headings read alike, the source gives them in different places.
Experiments:
[1] = test system: Neisseria meningitidis PMC2 (Z/29E); test: MIC of PBT2 (broth and agar)
[2] = test system: MDR Neisseria gonorrhoeae; test: RNA-seq expression profile analysis after PBT2 treatment; assay type: cell-based; settings: for fold change in gene expression (up- or down-regulated) at 0.156 µg/mL / fold induction at 0.156 µg/mL: Neisseria gonorrhoeae
Experimental: Expression profile analysis using RNA-seq was performed to investigate the mode of action of PBT2 in killing Neisseria gonorrhoeae.

[3] = Plasma drug level of PBT2 in clinical trial (NCT02249728); assay type: in vivo, human; settings: 250 mg/day; MDR Neisseria gonorrhoeae
[4] = sub-MIC PBT2 0.156 mg/L, cut-off >=2-fold, P<0.05
[5] = up-regulated gene WHOZ_00323 (ABC transporter periplasmic binding protein, iron related)
[6] = up-regulated gene WHOZ_00324 (iron(III) ABC transporter permease)

CN(C)Cc1ccc2c(Cl)cc(Cl)c(O)c2n1 [PBT2, 5,7-dichloro-2-[(dimethylamino)methyl]quinolin-8-ol]
MIC ([1]; agar): 0.039 µg/mL
MIC ([1]; broth): 0.156 µg/mL
fold change in gene expression (up- or down-regulated) at 0.156 µg/mL ([2]; read-out: Fold Change, down-regulated gene WHOZ_00293 (Periplasmic protein)): 3.56
fold change in gene expression (up- or down-regulated) at 0.156 µg/mL ([2]; read-out: Fold Change, down-regulated gene WHOZ_00873 (outer membrane protein)): 3.36
fold change in gene expression (up- or down-regulated) at 0.156 µg/mL ([2]; read-out: Fold Change, down-regulated gene WHOZ_00996 (Na(+)-translocating NADH-quinone reductase subunit D)): 3.25
fold change in gene expression (up- or down-regulated) at 0.156 µg/mL ([2]; read-out: Fold Change, down-regulated gene WHOZ_00998 (Na(+)-translocating NADH-quinone reductase subunit B)): 3.3
fold change in gene expression (up- or down-regulated) at 0.156 µg/mL ([2]; read-out: Fold Change, down-regulated gene WHOZ_01539 (NADH dehydrogenase subunit C)): 3.32
fold change in gene expression (up- or down-regulated) at 0.156 µg/mL ([2]; read-out: Fold Change, down-regulated gene WHOZ_01541 (NADH dehydrogenase subunit E)): 3.77
fold change in gene expression (up- or down-regulated) at 0.156 µg/mL ([2]; read-out: Fold Change, down-regulated gene WHOZ_01542 (NADH-quinone oxidoreductase, F subunit)): 3.57
fold change in gene expression (up- or down-regulated) at 0.156 µg/mL ([2]; read-out: Fold Change, down-regulated gene WHOZ_01545 (NADH-quinone oxidoreductase subunit H)): 3.58
fold change in gene expression (up- or down-regulated) at 0.156 µg/mL ([2]; read-out: Fold Change, down-regulated gene WHOZ_01546 (NADH dehydrogenase subunit I)): 4.11
fold change in gene expression (up- or down-regulated) at 0.156 µg/mL ([2]; read-out: Fold Change, down-regulated gene WHOZ_01547 (NADH dehydrogenase subunit J)): 3.8
fold change in gene expression (up- or down-regulated) at 0.156 µg/mL ([2]; read-out: Fold Change, down-regulated gene WHOZ_01548 (NADH dehydrogenase subunit K)): 4
fold change in gene expression (up- or down-regulated) at 0.156 µg/mL ([2]; read-out: Fold Change, down-regulated gene WHOZ_01549 (NADH:ubiquinone dehydrogenase, L subunit)): 3.95
fold change in gene expression (up- or down-regulated) at 0.156 µg/mL ([2]; read-out: Fold Change, down-regulated gene WHOZ_01550 (Predicted HKD family nuclease)): 3.73
fold change in gene expression (up- or down-regulated) at 0.156 µg/mL ([2]; read-out: Fold Change, down-regulated gene WHOZ_01551 (NADH dehydrogenase subunit M)): 3.68
fold change in gene expression (up- or down-regulated) at 0.156 µg/mL ([2]; read-out: Fold Change, down-regulated gene WHOZ_01552 (NADH dehydrogenase subunit N)): 3.41
fold change in gene expression (up- or down-regulated) at 0.156 µg/mL ([2]; read-out: Fold Change, down-regulated gene bfr (bacterioferritin), first entry): 8.2
fold change in gene expression (up- or down-regulated) at 0.156 µg/mL ([2]; read-out: Fold Change, down-regulated gene bfr (bacterioferritin), second entry): 7.73
fold change in gene expression (up- or down-regulated) at 0.156 µg/mL ([2]; read-out: Fold Change, down-regulated gene cysK (Cysteine synthetase)): 3.38
fold change in gene expression (up- or down-regulated) at 0.156 µg/mL ([2]; read-out: Fold Change, down-regulated gene nqrE): 3.48
fold change in gene expression (up- or down-regulated) at 0.156 µg/mL ([2]; read-out: Fold Change, down-regulated gene nqrF): 3.47
fold induction at 0.156 µg/mL ([2]; read-out: Fold Change, up-regulated gene WHOZ_00302 (MpeR)): 20.2
fold induction at 0.156 µg/mL ([2]; read-out: Fold Change, up-regulated gene WHOZ_00403 (putative lipoprotein)): 19.1
fold induction at 0.156 µg/mL ([2]; read-out: Fold Change, up-regulated gene WHOZ_00412 (putative ferredoxin)): 4.43
fold induction at 0.156 µg/mL ([2]; read-out: Fold Change, up-regulated gene WHOZ_00413 (Thioredoxin)): 7.01
fold induction at 0.156 µg/mL ([2]; read-out: Fold Change, up-regulated gene WHOZ_00880 (integral membrane protein)): 3.91
fold induction at 0.156 µg/mL ([2]; read-out: Fold Change, up-regulated gene WHOZ_01151 (TonB-dependent receptor plug domain-containing protein)): 4.75
fold induction at 0.156 µg/mL ([2]; read-out: Fold Change, up-regulated gene WHOZ_01152 (hemoglobin receptor)): 5.13
fold induction at 0.156 µg/mL ([2]; read-out: Fold Change, up-regulated gene WHOZ_01153 (hemoglobin receptor)): 3.89
fold induction at 0.156 µg/mL ([2]; read-out: Fold Change, up-regulated gene WHOZ_01683 (fetA)): 4.53
fold induction at 0.156 µg/mL ([2]; read-out: Fold Change, up-regulated gene WHOZ_01837 (outer membrane protein)): 3.91
fold induction at 0.156 µg/mL ([2]; read-out: Fold Change, up-regulated gene WHOZ_01985 (hypothetical periplasmic protein)): 5.49
fold induction at 0.156 µg/mL ([2]; read-out: Fold Change, up-regulated gene WHOZ_02005 (transferrin-binding protein-like)): 10.1
fold induction at 0.156 µg/mL ([2]; read-out: Fold Change, up-regulated gene WHOZ_02042 (TonB)): 11.9
fold induction at 0.156 µg/mL ([2]; read-out: Fold Change, up-regulated gene WHOZ_02043 (ExbB)): 10.5
fold induction at 0.156 µg/mL ([2]; read-out: Fold Change, up-regulated gene WHOZ_02044 (ExbD protein)): 12.5
fold induction at 0.156 µg/mL ([2]; read-out: Fold Change, up-regulated gene WP_003690577.1 (hypothetical protein)): 4.61
fold induction at 0.156 µg/mL ([2]; read-out: Fold Change, up-regulated gene WP_003690710.1 (hypothetical protein)): 8.64
fold induction at 0.156 µg/mL ([2]; read-out: Fold Change, up-regulated gene fumC (Fumarase C)): 12.2
fold induction at 0.156 µg/mL ([2]; sub-MIC PBT2 0.156 mg/L, read-out: up-regulation of mpeR): 20
fold induction at 0.156 µg/mL ([2]; sub-MIC PBT2 0.156 mg/L, read-out: up-regulation of seven genes): > 10
LogFC ([2]; down-regulated gene WHOZ_00293 (Periplasmic protein)): 1.83
LogFC ([2]; down-regulated gene WHOZ_00873 (outer membrane protein)): 1.75
LogFC ([2]; down-regulated gene WHOZ_00996 (Na(+)-translocating NADH-quinone reductase subunit D)): 1.70
LogFC ([2]; down-regulated gene WHOZ_00998 (Na(+)-translocating NADH-quinone reductase subunit B)): 1.72
LogFC ([2]; down-regulated gene WHOZ_01539 (NADH dehydrogenase subunit C)): 1.73
LogFC ([2]; down-regulated gene WHOZ_01541 (NADH dehydrogenase subunit E)): 1.92
LogFC ([2]; down-regulated gene WHOZ_01542 (NADH-quinone oxidoreductase, F subunit)): 1.83
LogFC ([2]; down-regulated gene WHOZ_01545 (NADH-quinone oxidoreductase subunit H)): 1.84
LogFC ([2]; down-regulated gene WHOZ_01546 (NADH dehydrogenase subunit I)): 2.04
LogFC ([2]; down-regulated gene WHOZ_01547 (NADH dehydrogenase subunit J)): 1.93
LogFC ([2]; down-regulated gene WHOZ_01548 (NADH dehydrogenase subunit K)): 2.00
LogFC ([2]; down-regulated gene WHOZ_01549 (NADH:ubiquinone dehydrogenase, L subunit)): 1.98
LogFC ([2]; down-regulated gene WHOZ_01550 (Predicted HKD family nuclease)): 1.90
LogFC ([2]; down-regulated gene WHOZ_01551 (NADH dehydrogenase subunit M)): 1.88
LogFC ([2]; down-regulated gene WHOZ_01552 (NADH dehydrogenase subunit N)): 1.77
LogFC ([2]; down-regulated gene bfr (bacterioferritin), first entry): 3.03
LogFC ([2]; down-regulated gene bfr (bacterioferritin), second entry): 2.95
LogFC ([2]; down-regulated gene cysK (Cysteine synthetase)): 1.76
LogFC ([2]; down-regulated gene nqrE): 1.80
LogFC ([2]; down-regulated gene nqrF): 1.80
regulation of genes encoding NADH-associated proteins ([2]; sub-MIC PBT2 0.156 mg/L, FIG. 3): down-regulated
number of down-regulated genes [2, 4]: 96 genes
number of up-regulated genes [2, 4]: 62 genes
LogFC ([2]; up-regulated gene WHOZ_00302 (MpeR)): 4.33
Fold Change [2, 5]: 5.44 fold
LogFC [2, 5]: 2.44
Fold Change [2, 6]: 3.74 fold
LogFC [2, 6]: 1.90
LogFC ([2]; up-regulated gene WHOZ_00403 (putative lipoprotein)): 4.26
LogFC ([2]; up-regulated gene WHOZ_00412 (putative ferredoxin)): 2.15
LogFC ([2]; up-regulated gene WHOZ_00413 (Thioredoxin)): 2.81
LogFC ([2]; up-regulated gene WHOZ_00880 (integral membrane protein)): 1.97
LogFC ([2]; up-regulated gene WHOZ_01151 (TonB-dependent receptor plug domain-containing protein)): 2.25
LogFC ([2]; up-regulated gene WHOZ_01152 (hemoglobin receptor)): 2.36
LogFC ([2]; up-regulated gene WHOZ_01153 (hemoglobin receptor)): 1.96
LogFC ([2]; up-regulated gene WHOZ_01683 (fetA)): 2.18
LogFC ([2]; up-regulated gene WHOZ_01837 (outer membrane protein)): 1.97
LogFC ([2]; up-regulated gene WHOZ_01985 (hypothetical periplasmic protein)): 2.46
LogFC ([2]; up-regulated gene WHOZ_02005 (transferrin-binding protein-like)): 3.33
LogFC ([2]; up-regulated gene WHOZ_02042 (TonB)): 3.58
LogFC ([2]; up-regulated gene WHOZ_02043 (ExbB)): 3.40
LogFC ([2]; up-regulated gene WHOZ_02044 (ExbD protein)): 3.64
LogFC ([2]; up-regulated gene WP_003690577.1 (hypothetical protein)): 2.20
LogFC ([2]; up-regulated gene WP_003690710.1 (hypothetical protein)): 3.11
LogFC ([2]; up-regulated gene fumC (Fumarase C)): 3.61
plasma AUC relative to PBT2 MIC (313 ng/ml) [3]: 5 fold
